Measured values taken from patent US20250382268A1, “METHODS AND COMPOSITIONS FOR SELECTIVELY INHIBITING PATHOGENIC MICROBES” (priority 2019, published 2025).
≈ marks a conversion by molar mass, not a printed value. Like-named read-outs stand apart in the source and are kept apart here.

Columns and labels:
Bacillus subtilis = assay: MIC/MBC against Bacillus subtilis strains; format: cell-based
Bacillus thuringiensis = assay: microbe, parasite or virus in culture; format: cell-based
Candida glabrata = assay: microbe, parasite or virus in culture; format: cell-based; settings: Nakaseomyces glabratus
Burkholderia cenocepacia = assay: microbe, parasite or virus in culture; format: cell-based
[1] = system: Burkholderia thailandensis; assay: microbe, parasite or virus in culture; format: cell-based
S. aureus [2] = assay: Macromolecular synthesis assay (glucosamine incorporation into cell wall); format: cell-based, Staphylococcus aureus; settings: dose-response, FIG. 2A-2B
HepG2 cells [3] = assay: Cytotoxicity MTT assay in HepG2 cells; format: cell-based; settings: Homo sapiens
Method: Additionally, the antimicrobial compounds were analyzed for cytotoxicity. […] We utilized the standard MTT assay (Promega CellTiter 96) and GraphPad Prism 7 software to determine EC50 values for each analogue. Briefly, 20,000 HepG2 cells in 200 μl of the ATCC recommended media were seeded in each well of a 96-well plate with a moisture barrier created in the outermost wells. The cells were allowed to attach overnight at 37° C., and then observed under phase contrast microscopy for proper morphological characteristics. […] Once incubations were complete, the spectrophotometric absorbance of the samples was measured at a wavelength of 595 nm. […] For the HepaRG assay, NoSpin HepaRG™ cells (Lonza, cat #NSHPRG) were thawed and plated with 20,000 cells per well. They were allowed to attach for 4 h (optimal DME profile per Lonza's testing) before dosing following the identical protocol as above.

[4] = system: branched chain amino acid synthesis pathway; assay: Transcriptomic (RNAseq) and metabolic mechanism of action studies
S. aureus [5] = assay: SYTOX green cell permeability assay on S. aureus; format: cell-based, Staphylococcus aureus; settings: concentrations relative to the MIC, FIG. 1A
HepG2 cells [6] = assay: SYTOX permeabilization assay on HepG2 cells; format: cell-based; settings: up to 4× MIC, FIG. 2C
Staphylococcus aureus = assay: microbe, parasite or virus in culture

Brc1ccc(Oc2c[nH]c3cc(Br)ccc23)cc1 [174AC, 6-bromo-3-(4-bromophenoxy)-1H-indole]
MBC (Bacillus subtilis): 16 µg/mL (≈ 43.6 µM)
MIC (Bacillus subtilis): 8 µg/mL (≈ 21.8 µM)
MBC (Bacillus thuringiensis): 50 µg/mL (≈ 136 µM)
MIC (Bacillus thuringiensis; Bacillus thuringiensis Berliner ATCC: 10792): 8 µg/mL (≈ 21.8 µM)
MIC (Candida glabrata): 25 µg/mL (≈ 68.1 µM)
MIC (Burkholderia cenocepacia): > 50 µg/mL
MIC [1]: > 50 µg/mL

Brc1ccc2[nH]cc(Sc3ccccc3Br)c2c1 [Compound 174I, 5-bromo-3-((2-bromophenyl)thio)-1H-indole]
cell wall synthesis inhibition (glucosamine incorporation) (S. aureus [2]): substantial cell wall synthesis inhibition
EC50 (HepG2 cells [3]): 25.4 µg/mL (≈ 66.3 µM)
mechanism of action by transcriptomic and metabolic studies [4]: branched chain amino acid biosynthesis inhibition
cell permeability by SYTOX green fluorescence (S. aureus [5]): clear dose-dependent increase in permeability
permeabilization of HepG2 cells (SYTOX) (HepG2 cells [6]): no permeabilization of HepG2 cells

Nc1ccccc1Sc1c[nH]c2ccc(Br)cc12 [Compound 174M, 2-((5-bromo-1H-indol-3-yl)thio)aniline]
EC50 (HepG2 cells [3]): 26.5 µg/mL (≈ 83 µM)
mechanism of action by transcriptomic and metabolic studies [4]: branched chain amino acid biosynthesis inhibition
permeabilization of HepG2 cells (SYTOX) (HepG2 cells [6]): no permeabilization of HepG2 cells
MIC (Staphylococcus aureus; MRSA, read-out: Staphylococcus aureus MIC, MRSA strain HM-467): 12.5 µg/mL (≈ 39.2 µM)
MIC (Staphylococcus aureus; MRSA, read-out: Staphylococcus aureus MIC, MRSA strain NK-41886): 12.5 µg/mL (≈ 39.2 µM)
MIC (Staphylococcus aureus; MRSA, read-out: Staphylococcus aureus MIC, MRSA strain NR-13533): 12.5 µg/mL (≈ 39.2 µM)
MIC (Staphylococcus aureus; MRSA, read-out: Staphylococcus aureus MIC, MRSA strain NR-28983): 12.5 µg/mL (≈ 39.2 µM)
MIC (Staphylococcus aureus; MRSA, read-out: Staphylococcus aureus MIC, MRSA strain NR-41875): 12.5 µg/mL (≈ 39.2 µM)
MIC (Staphylococcus aureus; MRSA, read-out: Staphylococcus aureus MIC, MRSA strain NR-41876): 12.5 µg/mL (≈ 39.2 µM)
MIC (Staphylococcus aureus; MRSA, read-out: Staphylococcus aureus MIC, MRSA strain NR-41877): 25 µg/mL (≈ 78.3 µM)
MIC (Staphylococcus aureus; MRSA, read-out: Staphylococcus aureus MIC, MRSA strain NR-41878): 12.5 µg/mL (≈ 39.2 µM)
MIC (Staphylococcus aureus; read-out: Staphylococcus aureus MIC, VSSA NR-49121): 12.5 µg/mL (≈ 39.2 µM)

CN[C@H](CC(C)C)C(=O)N[C@H]1C(=O)N[C@@H](CC(N)=O)C(=O)N[C@H]2C(=O)N[C@H]3C(=O)N[C@H](C(=O)N[C@H](C(=O)O)c4cc(O)cc(O)c4-c4cc3ccc4O)[C@H](O)c3ccc(c(Cl)c3)Oc3cc2cc(c3O[C@@H]2O[C@H](CO)[C@@H](O)[C@H](O)[C@H]2O[C@H]2C[C@](C)(N)[C@H](O)[C@H](C)O2)Oc2ccc(cc2Cl)[C@H]1O [vancomycin, reference compound]
cell wall synthesis inhibition (glucosamine incorporation) (S. aureus [2]): increasingly inhibits glucosamine from incorporating into a cell wall
